Measurements taken from the NIST ThermoML archive (doi:10.1021/je1012857).

Assay: xn = mol fraction of the nth substance listed
Conditions: 101 kPa, Liquid; for speed of sound: Sing-around technique in a fixed-path interferometer; for viscosity: Capillary tube (Ostwald / Ubbelohde) method

NCCN [ethane-1,2-diamine] + CC(C)O
Conditions | mass density [kg/m3] | speed of sound [m/s] | viscosity [mPa·s]
293.15 K, x1 = 0.0557 | 793.696 | 1187.2 | –
293.15 K, x1 = 0.1036 | 800.705 | 1213.8 | –
293.15 K, x1 = 0.156 | 807.902 | 1241.5 | –
293.15 K, x1 = 0.2011 | 813.922 | 1265.8 | –
293.15 K, x1 = 0.2548 | 820.862 | 1295.1 | –
293.15 K, x1 = 0.3018 | 826.514 | 1320.2 | –
293.15 K, x1 = 0.3892 | 836.546 | 1366.4 | –
293.15 K, x1 = 0.5109 | 849.474 | 1430.5 | –
293.15 K, x1 = 0.605 | 858.745 | 1478.9 | –
293.15 K, x1 = 0.6988 | 868.4 | 1530.6 | –
293.15 K, x1 = 0.7969 | 878.278 | 1584.3 | –
293.15 K, x1 = 0.8369 | 881.835 | 1605.3 | –
293.15 K, x1 = 0.8931 | 887.269 | 1635.6 | –
293.15 K, x1 = 0.9409 | 892.34 | 1662.9 | –
298.15 K, x1 = 0.0557 | 789.425 | 1169.4 | 2.034
298.15 K, x1 = 0.1036 | 796.388 | 1195.9 | 2.017
298.15 K, x1 = 0.156 | 803.523 | 1223.4 | 1.997
298.15 K, x1 = 0.2011 | 809.506 | 1247.6 | 1.978
298.15 K, x1 = 0.2548 | 816.397 | 1276.6 | 1.962
298.15 K, x1 = 0.3018 | 822.019 | 1301.6 | 1.936
298.15 K, x1 = 0.3892 | 832.023 | 1347.5 | 1.886
298.15 K, x1 = 0.5109 | 844.925 | 1410.9 | 1.796
298.15 K, x1 = 0.605 | 854.173 | 1458.9 | 1.725
298.15 K, x1 = 0.6988 | 863.796 | 1510 | 1.637
298.15 K, x1 = 0.7969 | 873.662 | 1563.2 | 1.543
298.15 K, x1 = 0.8369 | 877.194 | 1583.7 | 1.511
298.15 K, x1 = 0.8931 | 882.613 | 1613.9 | 1.469
298.15 K, x1 = 0.9409 | 887.669 | 1640.7 | 1.438
303.15 K, x1 = 0.0557 | 785.1 | 1151.7 | 1.761
303.15 K, x1 = 0.1036 | 792.016 | 1178 | 1.746
303.15 K, x1 = 0.156 | 799.108 | 1205.3 | 1.733
303.15 K, x1 = 0.2011 | 805.044 | 1229.4 | 1.718
303.15 K, x1 = 0.2548 | 811.904 | 1258.2 | 1.698
303.15 K, x1 = 0.3018 | 817.496 | 1283 | 1.675
303.15 K, x1 = 0.3892 | 827.475 | 1328.5 | 1.629
303.15 K, x1 = 0.5109 | 840.354 | 1391.5 | 1.558
303.15 K, x1 = 0.605 | 849.588 | 1439 | 1.496
303.15 K, x1 = 0.6988 | 859.186 | 1489.5 | 1.429
303.15 K, x1 = 0.7969 | 869.028 | 1542.1 | 1.357
303.15 K, x1 = 0.8369 | 872.546 | 1562.4 | 1.331
303.15 K, x1 = 0.8931 | 877.945 | 1592.1 | 1.298
303.15 K, x1 = 0.9409 | 882.985 | 1618.7 | 1.271
308.15 K, x1 = 0.0557 | 780.72 | 1134 | 1.555
308.15 K, x1 = 0.1036 | 787.599 | 1160.1 | 1.543
308.15 K, x1 = 0.156 | 794.649 | 1187.3 | 1.528
308.15 K, x1 = 0.2011 | 800.552 | 1211.2 | 1.516
308.15 K, x1 = 0.2548 | 807.374 | 1239.8 | 1.497
308.15 K, x1 = 0.3018 | 812.943 | 1264.5 | 1.48
308.15 K, x1 = 0.3892 | 822.898 | 1309.7 | 1.44
308.15 K, x1 = 0.5109 | 835.76 | 1372.1 | 1.375
308.15 K, x1 = 0.605 | 844.983 | 1419.1 | 1.322
308.15 K, x1 = 0.6988 | 854.563 | 1469.1 | 1.266
308.15 K, x1 = 0.7969 | 864.38 | 1521.1 | 1.205
308.15 K, x1 = 0.8369 | 867.885 | 1541.2 | 1.183
308.15 K, x1 = 0.8931 | 873.264 | 1570.6 | 1.152
308.15 K, x1 = 0.9409 | 878.288 | 1596.8 | 1.129
313.15 K, x1 = 0.0557 | 776.266 | 1116.4 | –
313.15 K, x1 = 0.1036 | 783.114 | 1142.2 | –
313.15 K, x1 = 0.156 | 790.129 | 1169.4 | –
313.15 K, x1 = 0.2011 | 796.005 | 1193.2 | –
313.15 K, x1 = 0.2548 | 802.798 | 1221.6 | –
313.15 K, x1 = 0.3018 | 808.346 | 1246.1 | –
313.15 K, x1 = 0.3892 | 818.281 | 1291.2 | –
313.15 K, x1 = 0.5109 | 831.131 | 1353.4 | –
313.15 K, x1 = 0.605 | 840.349 | 1399.4 | –
313.15 K, x1 = 0.6988 | 849.909 | 1449.1 | –
313.15 K, x1 = 0.7969 | 859.706 | 1500.5 | –
313.15 K, x1 = 0.8369 | 863.196 | 1520.3 | –
313.15 K, x1 = 0.8931 | 868.56 | 1549.4 | –
313.15 K, x1 = 0.9409 | 873.569 | 1575.4 | –

NCCN [ethane-1,2-diamine] + CCCCO
Conditions | mass density [kg/m3] | speed of sound [m/s] | viscosity [mPa·s]
293.15 K, x1 = 0.0528 | 815.585 | 1279.7 | –
293.15 K, x1 = 0.1135 | 822.116 | 1302.1 | –
293.15 K, x1 = 0.1488 | 825.769 | 1315.9 | –
293.15 K, x1 = 0.214 | 832.273 | 1341.7 | –
293.15 K, x1 = 0.2602 | 836.674 | 1360.5 | –
293.15 K, x1 = 0.3286 | 842.718 | 1387.1 | –
293.15 K, x1 = 0.3985 | 848.216 | 1414.5 | –
293.15 K, x1 = 0.5036 | 856.28 | 1456.5 | –
293.15 K, x1 = 0.5965 | 863.365 | 1494.7 | –
293.15 K, x1 = 0.7081 | 872.153 | 1543.9 | –
293.15 K, x1 = 0.7931 | 879.359 | 1584.7 | –
293.15 K, x1 = 0.8504 | 884.315 | 1613.6 | –
293.15 K, x1 = 0.8979 | 888.772 | 1639.1 | –
293.15 K, x1 = 0.936 | 892.567 | 1660.5 | –
298.15 K, x1 = 0.0528 | 811.698 | 1262.9 | 2.609
298.15 K, x1 = 0.1135 | 818.144 | 1285 | 2.591
298.15 K, x1 = 0.1488 | 821.746 | 1298.6 | 2.584
298.15 K, x1 = 0.214 | 828.164 | 1324.3 | 2.53
298.15 K, x1 = 0.2602 | 832.509 | 1342.9 | 2.484
298.15 K, x1 = 0.3283 | – | – | 2.412
298.15 K, x1 = 0.3286 | 838.245 | 1368.8 | –
298.15 K, x1 = 0.3985 | 843.943 | 1396.3 | 2.327
298.15 K, x1 = 0.5036 | 851.943 | 1437.7 | 2.184
298.15 K, x1 = 0.5965 | 858.974 | 1475.5 | 2.03
298.15 K, x1 = 0.7081 | 867.696 | 1523.9 | 1.842
298.15 K, x1 = 0.7931 | 874.839 | 1564.1 | 1.697
298.15 K, x1 = 0.8504 | 879.75 | 1592.5 | 1.604
298.15 K, x1 = 0.8979 | 884.168 | 1617.5 | 1.538
298.15 K, x1 = 0.936 | 887.932 | 1638.7 | 1.481
303.15 K, x1 = 0.0528 | 807.785 | 1245.9 | 2.298
303.15 K, x1 = 0.1135 | 814.153 | 1267.9 | 2.3
303.15 K, x1 = 0.1488 | 817.703 | 1281.4 | 2.292
303.15 K, x1 = 0.214 | 824.038 | 1306.8 | 2.245
303.15 K, x1 = 0.2602 | 828.329 | 1325.3 | 2.213
303.15 K, x1 = 0.3283 | – | – | 2.147
303.15 K, x1 = 0.3286 | 833.896 | 1350.9 | –
303.15 K, x1 = 0.3985 | 839.656 | 1378.1 | 2.071
303.15 K, x1 = 0.5036 | 847.599 | 1419.1 | 1.942
303.15 K, x1 = 0.5965 | 854.57 | 1456.3 | 1.813
303.15 K, x1 = 0.7081 | 863.224 | 1504 | 1.648
303.15 K, x1 = 0.7931 | 870.306 | 1543.5 | 1.531
303.15 K, x1 = 0.8504 | 875.173 | 1571.4 | 1.448
303.15 K, x1 = 0.8979 | 879.552 | 1596.1 | 1.381
303.15 K, x1 = 0.936 | 883.288 | 1616.8 | 1.334
308.15 K, x1 = 0.0528 | 803.849 | 1228.5 | 2.001
308.15 K, x1 = 0.1135 | 810.137 | 1250.7 | 2.009
308.15 K, x1 = 0.1488 | 813.64 | 1264.3 | 1.995
308.15 K, x1 = 0.214 | 819.892 | 1289.5 | 1.954
308.15 K, x1 = 0.2602 | 824.133 | 1307.8 | 1.923
308.15 K, x1 = 0.3283 | – | – | 1.866
308.15 K, x1 = 0.3286 | 829.828 | 1333.6 | –
308.15 K, x1 = 0.3985 | 835.352 | 1360 | 1.798
308.15 K, x1 = 0.5036 | 843.235 | 1400.4 | 1.697
308.15 K, x1 = 0.5965 | 850.157 | 1437.1 | 1.601
308.15 K, x1 = 0.7081 | 858.739 | 1484.2 | 1.471
308.15 K, x1 = 0.7931 | 865.762 | 1523 | 1.377
308.15 K, x1 = 0.8504 | 870.584 | 1550.5 | 1.314
308.15 K, x1 = 0.8979 | 874.924 | 1574.8 | 1.25
308.15 K, x1 = 0.936 | 878.628 | 1595.3 | 1.198
313.15 K, x1 = 0.0528 | 799.876 | 1210.7 | –
313.15 K, x1 = 0.1135 | 806.088 | 1233.6 | –
313.15 K, x1 = 0.1488 | 809.548 | 1247.2 | –
313.15 K, x1 = 0.214 | 815.723 | 1272.3 | –
313.15 K, x1 = 0.2602 | 819.91 | 1290.4 | –
313.15 K, x1 = 0.3286 | 825.879 | 1315.8 | –
313.15 K, x1 = 0.3985 | 831.025 | 1341.9 | –
313.15 K, x1 = 0.5036 | 838.849 | 1381.7 | –
313.15 K, x1 = 0.5965 | 845.718 | 1418.1 | –
313.15 K, x1 = 0.7081 | 854.232 | 1464.4 | –
313.15 K, x1 = 0.7931 | 861.194 | 1502.7 | –
313.15 K, x1 = 0.8504 | 865.971 | 1529.7 | –
313.15 K, x1 = 0.8979 | 870.277 | 1553.1 | –
313.15 K, x1 = 0.936 | 873.95 | 1573.7 | –
